Laboratory results taken from the kinase profiling compilation of Christmann-Franck et al. (2016).
One block for each compound: values may come before it.

Assays:
Experiment in all cases: radiometric filter-binding kinase assay
[1] = biological target: SRPK1 (human) (UniProt Q96SB4)
[2] = biological target: CSNK1D (human) (UniProt P48730)
[3] = biological target: PLK1 (human) (UniProt P53350)
[4] = biological target: STK11 CAB39 STRADA (human) (UniProt Q9Y376+Q7RTN6+Q15831)
[5] = biological target: MKNK2 (human) (UniProt Q9HBH9)
[6] = biological target: MAPK3 (human) (UniProt P27361)
Sequence of MAPK3 (human) (P27361 whole entry, looked up): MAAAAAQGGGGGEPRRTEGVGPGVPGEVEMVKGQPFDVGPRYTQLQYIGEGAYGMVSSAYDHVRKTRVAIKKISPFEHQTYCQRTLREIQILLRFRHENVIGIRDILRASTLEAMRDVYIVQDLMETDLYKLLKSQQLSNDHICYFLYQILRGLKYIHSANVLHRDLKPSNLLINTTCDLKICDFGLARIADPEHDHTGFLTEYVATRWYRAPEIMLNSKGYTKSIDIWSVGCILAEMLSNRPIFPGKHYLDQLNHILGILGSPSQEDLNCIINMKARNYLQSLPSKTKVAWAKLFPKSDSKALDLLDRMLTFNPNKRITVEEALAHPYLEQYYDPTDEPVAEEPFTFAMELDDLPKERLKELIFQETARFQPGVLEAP

[7] = biological target: MAPK8 (human) (UniProt P45983)
Sequence of MAPK8 (human) (P45983 whole entry, looked up): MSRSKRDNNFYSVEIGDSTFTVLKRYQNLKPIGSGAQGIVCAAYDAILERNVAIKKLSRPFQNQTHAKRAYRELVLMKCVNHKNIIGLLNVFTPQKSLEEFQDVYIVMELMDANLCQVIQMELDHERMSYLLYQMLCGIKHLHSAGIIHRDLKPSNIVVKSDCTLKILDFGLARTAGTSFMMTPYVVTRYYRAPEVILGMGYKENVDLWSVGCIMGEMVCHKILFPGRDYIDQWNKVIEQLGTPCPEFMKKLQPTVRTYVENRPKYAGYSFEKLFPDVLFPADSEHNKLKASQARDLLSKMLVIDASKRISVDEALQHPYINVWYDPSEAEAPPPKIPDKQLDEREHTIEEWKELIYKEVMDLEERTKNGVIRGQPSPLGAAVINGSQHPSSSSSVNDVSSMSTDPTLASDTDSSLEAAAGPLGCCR

[8] = biological target: IKBKB (human) (UniProt O14920)
[9] = biological target: HIPK1 (human) (UniProt Q86Z02)
[10] = biological target: AURKA (human) (UniProt O14965)
[11] = test system: AKT1 (human), P31749 [S473D]
[12] = biological target: BRSK1 (human) (UniProt Q8TDC3)
[13] = biological target: NEK6 (human) (UniProt Q9HC98)
Sequence of NEK6 (human) (Q9HC98 whole entry, looked up): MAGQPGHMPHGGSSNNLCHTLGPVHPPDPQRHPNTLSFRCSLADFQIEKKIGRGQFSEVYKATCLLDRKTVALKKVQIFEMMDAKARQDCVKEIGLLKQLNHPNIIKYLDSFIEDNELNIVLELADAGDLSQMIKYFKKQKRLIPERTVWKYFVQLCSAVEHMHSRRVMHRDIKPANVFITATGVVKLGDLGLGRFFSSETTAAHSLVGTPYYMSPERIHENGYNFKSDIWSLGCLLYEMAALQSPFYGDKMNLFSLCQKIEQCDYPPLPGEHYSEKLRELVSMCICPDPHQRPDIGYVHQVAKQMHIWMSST

[14] = biological target: PAK7 (human) (UniProt Q9P286)
[15] = biological target: MAPK9 (human) (UniProt P45984)
[16] = biological target: RPS6KA5 KD1 KD2 (human) (UniProt O75582)
[17] = biological target: TBK1 (human) (UniProt Q9UHD2)
[18] = biological target: BTK (human) (UniProt Q06187)
Sequence of BTK (human) (Q06187 whole entry, looked up): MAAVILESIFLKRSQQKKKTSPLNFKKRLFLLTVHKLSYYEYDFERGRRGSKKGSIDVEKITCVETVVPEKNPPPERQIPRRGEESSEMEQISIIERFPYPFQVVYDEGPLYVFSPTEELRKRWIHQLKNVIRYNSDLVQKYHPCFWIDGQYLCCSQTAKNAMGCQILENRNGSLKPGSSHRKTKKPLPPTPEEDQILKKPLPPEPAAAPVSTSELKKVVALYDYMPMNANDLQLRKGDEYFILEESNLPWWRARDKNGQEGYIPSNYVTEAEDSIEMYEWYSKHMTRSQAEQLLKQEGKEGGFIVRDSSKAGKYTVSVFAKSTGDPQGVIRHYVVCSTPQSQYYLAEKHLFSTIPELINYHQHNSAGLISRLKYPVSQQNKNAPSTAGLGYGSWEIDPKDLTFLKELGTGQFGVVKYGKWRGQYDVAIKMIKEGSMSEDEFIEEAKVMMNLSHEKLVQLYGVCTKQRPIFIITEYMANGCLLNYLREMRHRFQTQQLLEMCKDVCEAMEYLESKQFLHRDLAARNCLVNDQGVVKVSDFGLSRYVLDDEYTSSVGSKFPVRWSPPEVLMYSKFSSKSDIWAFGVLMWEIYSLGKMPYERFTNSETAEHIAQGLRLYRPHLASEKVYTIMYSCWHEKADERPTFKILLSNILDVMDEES

[19] = biological target: MAPK1 (human) (UniProt P28482)
[20] = biological target: GSK3B (human) (UniProt P49841)
[21] = biological target: CSK (human) (UniProt P41240)
[22] = biological target: ERBB4 (human) (UniProt Q15303)
Sequence of ERBB4 (human) (Q15303 whole entry, looked up): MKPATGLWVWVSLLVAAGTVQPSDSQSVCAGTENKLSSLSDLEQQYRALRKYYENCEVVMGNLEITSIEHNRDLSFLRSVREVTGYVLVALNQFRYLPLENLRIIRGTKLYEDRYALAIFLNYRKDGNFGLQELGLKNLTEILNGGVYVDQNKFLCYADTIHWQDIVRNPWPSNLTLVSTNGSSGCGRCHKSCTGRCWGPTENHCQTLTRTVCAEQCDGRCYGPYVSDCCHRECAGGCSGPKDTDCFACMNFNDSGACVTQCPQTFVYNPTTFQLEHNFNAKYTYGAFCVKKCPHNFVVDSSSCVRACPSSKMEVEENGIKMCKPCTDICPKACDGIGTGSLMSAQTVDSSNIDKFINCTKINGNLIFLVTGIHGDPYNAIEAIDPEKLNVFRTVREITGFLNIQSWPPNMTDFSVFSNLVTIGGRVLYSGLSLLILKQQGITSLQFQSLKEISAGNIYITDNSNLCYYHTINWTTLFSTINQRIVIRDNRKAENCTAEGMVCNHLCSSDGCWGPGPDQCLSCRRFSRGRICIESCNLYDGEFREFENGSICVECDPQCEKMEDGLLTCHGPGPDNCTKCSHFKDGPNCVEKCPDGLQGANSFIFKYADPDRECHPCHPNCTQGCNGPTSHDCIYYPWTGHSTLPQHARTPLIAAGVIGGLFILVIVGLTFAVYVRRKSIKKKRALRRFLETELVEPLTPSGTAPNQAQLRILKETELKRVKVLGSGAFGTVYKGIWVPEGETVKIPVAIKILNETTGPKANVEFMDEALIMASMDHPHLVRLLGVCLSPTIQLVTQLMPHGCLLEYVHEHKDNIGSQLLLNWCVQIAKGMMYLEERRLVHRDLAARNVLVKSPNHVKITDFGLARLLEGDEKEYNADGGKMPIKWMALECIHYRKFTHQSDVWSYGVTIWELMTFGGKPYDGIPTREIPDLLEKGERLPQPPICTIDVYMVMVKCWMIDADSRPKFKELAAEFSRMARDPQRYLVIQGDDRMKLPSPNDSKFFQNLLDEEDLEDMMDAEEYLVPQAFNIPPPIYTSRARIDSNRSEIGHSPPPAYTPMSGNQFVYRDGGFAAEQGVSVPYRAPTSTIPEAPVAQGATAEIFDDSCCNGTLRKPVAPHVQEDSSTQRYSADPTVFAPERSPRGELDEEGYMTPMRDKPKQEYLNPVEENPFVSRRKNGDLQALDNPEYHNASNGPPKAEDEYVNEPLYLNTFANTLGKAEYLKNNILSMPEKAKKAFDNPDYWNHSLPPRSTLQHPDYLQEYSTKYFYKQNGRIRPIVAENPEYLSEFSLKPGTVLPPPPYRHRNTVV

[23] = biological target: EEF2K (human) (UniProt O00418)
[24] = biological target: RPS6KA3 KD1 KD2 (human) (UniProt P51812)
Sequence of RPS6KA3 KD1 KD2 (human) (P51812 whole entry, looked up): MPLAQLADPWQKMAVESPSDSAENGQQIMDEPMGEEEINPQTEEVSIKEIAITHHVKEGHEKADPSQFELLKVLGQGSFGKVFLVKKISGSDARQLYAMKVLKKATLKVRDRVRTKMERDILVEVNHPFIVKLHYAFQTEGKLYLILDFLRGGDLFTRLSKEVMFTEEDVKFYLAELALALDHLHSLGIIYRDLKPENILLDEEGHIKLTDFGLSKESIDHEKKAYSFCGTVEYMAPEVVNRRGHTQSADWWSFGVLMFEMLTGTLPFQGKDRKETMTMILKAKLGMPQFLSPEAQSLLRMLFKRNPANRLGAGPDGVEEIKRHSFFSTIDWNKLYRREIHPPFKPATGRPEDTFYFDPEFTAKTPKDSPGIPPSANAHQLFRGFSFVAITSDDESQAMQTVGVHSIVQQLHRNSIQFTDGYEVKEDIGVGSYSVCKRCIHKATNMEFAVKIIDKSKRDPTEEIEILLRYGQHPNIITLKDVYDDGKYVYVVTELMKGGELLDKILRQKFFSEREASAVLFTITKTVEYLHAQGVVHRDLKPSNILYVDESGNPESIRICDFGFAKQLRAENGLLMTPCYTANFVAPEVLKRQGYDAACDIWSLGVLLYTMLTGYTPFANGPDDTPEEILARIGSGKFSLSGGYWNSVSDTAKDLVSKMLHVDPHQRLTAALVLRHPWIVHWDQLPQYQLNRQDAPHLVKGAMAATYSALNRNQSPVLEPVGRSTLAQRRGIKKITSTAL

[25] = biological target: HIPK3 (human) (UniProt Q9H422)
Sequence of HIPK3 (human) (Q9H422 whole entry, looked up): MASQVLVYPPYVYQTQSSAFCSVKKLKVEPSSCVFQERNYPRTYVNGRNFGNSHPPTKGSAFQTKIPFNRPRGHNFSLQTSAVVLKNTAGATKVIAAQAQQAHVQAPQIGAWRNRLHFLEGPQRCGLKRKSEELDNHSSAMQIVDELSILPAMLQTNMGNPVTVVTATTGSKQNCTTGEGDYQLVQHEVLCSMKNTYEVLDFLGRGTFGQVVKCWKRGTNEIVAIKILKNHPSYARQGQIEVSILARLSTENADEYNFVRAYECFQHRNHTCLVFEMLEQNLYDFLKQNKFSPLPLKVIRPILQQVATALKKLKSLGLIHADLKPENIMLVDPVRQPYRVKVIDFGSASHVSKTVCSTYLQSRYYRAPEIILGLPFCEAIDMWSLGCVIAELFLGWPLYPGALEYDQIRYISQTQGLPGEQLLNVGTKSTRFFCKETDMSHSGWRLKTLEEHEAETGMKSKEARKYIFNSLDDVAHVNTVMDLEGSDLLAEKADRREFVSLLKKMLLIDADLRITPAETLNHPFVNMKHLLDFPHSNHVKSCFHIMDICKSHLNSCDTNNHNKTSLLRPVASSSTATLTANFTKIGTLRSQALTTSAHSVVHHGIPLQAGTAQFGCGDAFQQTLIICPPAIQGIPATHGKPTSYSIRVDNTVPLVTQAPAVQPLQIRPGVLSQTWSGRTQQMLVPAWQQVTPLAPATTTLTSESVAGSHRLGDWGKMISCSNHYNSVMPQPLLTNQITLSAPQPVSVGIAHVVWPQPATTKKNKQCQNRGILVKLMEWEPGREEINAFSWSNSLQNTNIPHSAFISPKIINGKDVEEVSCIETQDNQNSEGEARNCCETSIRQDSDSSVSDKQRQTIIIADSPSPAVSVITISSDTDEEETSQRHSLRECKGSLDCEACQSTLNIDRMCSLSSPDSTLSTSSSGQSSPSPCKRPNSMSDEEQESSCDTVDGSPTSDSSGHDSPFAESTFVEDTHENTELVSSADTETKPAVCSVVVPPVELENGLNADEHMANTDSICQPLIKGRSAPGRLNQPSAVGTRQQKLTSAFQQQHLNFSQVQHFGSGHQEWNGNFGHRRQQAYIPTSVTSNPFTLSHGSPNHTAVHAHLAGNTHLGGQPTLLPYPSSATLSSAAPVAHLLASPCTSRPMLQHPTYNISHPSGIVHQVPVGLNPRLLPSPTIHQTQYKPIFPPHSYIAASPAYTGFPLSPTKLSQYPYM

[26] = biological target: MAPKAPK3 (human) (UniProt Q16644)
[27] = biological target: BRSK2 (human) (UniProt Q8IWQ3)
[28] = test system: PAK2 (human), Q13177 [T402E]
[29] = biological target: MAPK15 (human) (UniProt Q8TD08)
[30] = biological target: FGFR1 (human) (UniProt P11362)
[31] = biological target: MAP2K6 (human) (UniProt P52564)
[32] = biological target: MAP2K2 (human) (UniProt P36507)
[33] = biological target: MAP3K5 (human) (UniProt Q99683)
[34] = biological target: EPHA4 (human) (UniProt P54764)

residual activity ([1]; compound 1.0 µM): 93%
residual activity ([1]; compound 10.0 µM): 89%
residual activity ([2]; compound 1.0 µM): 94%
residual activity ([2]; compound 10.0 µM): 101%
residual activity ([3]; compound 1.0 µM): 81%
residual activity ([3]; compound 10.0 µM): 88%
residual activity ([4]; compound 1.0 µM): 111%
residual activity ([4]; compound 10.0 µM): 110%
residual activity ([5]; compound 1.0 µM): 106%
residual activity ([5]; compound 10.0 µM): 102%
residual activity ([6]; compound 10.0 µM): 93%
residual activity ([7]; compound 1.0 µM): 85%
residual activity ([7]; compound 10.0 µM): 79%
residual activity ([8]; compound 1.0 µM): 95%
residual activity ([8]; compound 10.0 µM): 96%
residual activity ([9]; compound 1.0 µM): 91%
residual activity ([9]; compound 10.0 µM): 91%
residual activity ([10]; compound 1.0 µM): 101%
residual activity ([10]; compound 10.0 µM): 102%
residual activity ([11]; compound 1.0 µM): 96%
residual activity ([11]; compound 10.0 µM): 91%
residual activity ([12]; compound 1.0 µM): 101%
residual activity ([12]; compound 10.0 µM): 103%
residual activity ([13]; compound 1.0 µM): 89%
residual activity ([13]; compound 10.0 µM): 119%
residual activity ([14]; compound 1.0 µM): 119%
residual activity ([14]; compound 10.0 µM): 99%
residual activity ([15]; compound 1.0 µM): 85%
residual activity ([15]; compound 10.0 µM): 88%
residual activity ([16]; compound 1.0 µM): 78%
residual activity ([16]; compound 10.0 µM): 90%
residual activity ([17]; compound 1.0 µM): 87%
residual activity ([17]; compound 10.0 µM): 96%
residual activity ([18]; compound 1.0 µM): 99%
residual activity ([18]; compound 10.0 µM): 89%
residual activity ([19]; compound 1.0 µM): 94%
residual activity ([19]; compound 10.0 µM): 92%
residual activity ([20]; compound 1.0 µM): 110%
residual activity ([20]; compound 10.0 µM): 101%
residual activity ([21]; compound 1.0 µM): 98%
residual activity ([21]; compound 10.0 µM): 110%
residual activity ([22]; compound 1.0 µM): 109%
residual activity ([22]; compound 10.0 µM): 104%
residual activity ([23]; compound 1.0 µM): 83%
residual activity ([23]; compound 10.0 µM): 75%
residual activity ([24]; compound 1.0 µM): 91%
residual activity ([24]; compound 10.0 µM): 92%
residual activity ([25]; compound 1.0 µM): 111%
residual activity ([25]; compound 10.0 µM): 102%
residual activity ([26]; compound 1.0 µM): 119%
residual activity ([26]; compound 10.0 µM): 114%
residual activity ([27]; compound 1.0 µM): 91%
residual activity ([27]; compound 10.0 µM): 85%
residual activity ([28]; compound 1.0 µM): 102%
residual activity ([28]; compound 10.0 µM): 94%
residual activity ([30]; compound 1.0 µM): 93%
residual activity ([30]; compound 10.0 µM): 100%
SMILES: CN1C(=O)[C@@H](Cc2c[nH]c3ccccc23)NC1=S
residual activity ([29]; compound 1.0 µM): 98%
residual activity ([29]; compound 10.0 µM): 103%

residual activity ([1]; compound 1.0 µM): 80%
residual activity ([1]; compound 10.0 µM): 95%
residual activity ([2]; compound 1.0 µM): 89%
residual activity ([2]; compound 10.0 µM): 101%
residual activity ([3]; compound 1.0 µM): 81%
residual activity ([3]; compound 10.0 µM): 92%
residual activity ([4]; compound 1.0 µM): 113%
residual activity ([5]; compound 1.0 µM): 93%
residual activity ([5]; compound 10.0 µM): 110%
residual activity ([6]; compound 1.0 µM): 88%
residual activity ([6]; compound 10.0 µM): 106%
residual activity ([7]; compound 1.0 µM): 91%
residual activity ([7]; compound 10.0 µM): 117%
residual activity ([8]; compound 1.0 µM): 88%
residual activity ([8]; compound 10.0 µM): 103%
residual activity ([9]; compound 1.0 µM): 84%
residual activity ([9]; compound 10.0 µM): 92%
residual activity ([10]; compound 1.0 µM): 112%
residual activity ([10]; compound 10.0 µM): 108%
residual activity ([11]; compound 1.0 µM): 107%
residual activity ([11]; compound 10.0 µM): 104%
residual activity ([31]; compound 1.0 µM): 93%
residual activity ([31]; compound 10.0 µM): 102%
residual activity ([12]; compound 1.0 µM): 97%
residual activity ([12]; compound 10.0 µM): 112%
residual activity ([13]; compound 1.0 µM): 95%
residual activity ([13]; compound 10.0 µM): 110%
residual activity ([14]; compound 1.0 µM): 104%
residual activity ([14]; compound 10.0 µM): 85%
residual activity ([15]; compound 1.0 µM): 90%
residual activity ([15]; compound 10.0 µM): 105%
residual activity ([16]; compound 1.0 µM): 97%
residual activity ([16]; compound 10.0 µM): 96%
residual activity ([17]; compound 1.0 µM): 117%
residual activity ([17]; compound 10.0 µM): 101%
residual activity ([32]; compound 1.0 µM): 54%
residual activity ([32]; compound 10.0 µM): 16%
residual activity ([18]; compound 1.0 µM): 110%
residual activity ([18]; compound 10.0 µM): 100%
residual activity ([33]; compound 1.0 µM): 108%
residual activity ([33]; compound 10.0 µM): 116%
residual activity ([19]; compound 1.0 µM): 90%
residual activity ([19]; compound 10.0 µM): 100%
residual activity ([20]; compound 1.0 µM): 70%
residual activity ([20]; compound 10.0 µM): 88%
residual activity ([21]; compound 1.0 µM): 93%
residual activity ([21]; compound 10.0 µM): 98%
residual activity ([22]; compound 10.0 µM): 87%
residual activity ([34]; compound 1.0 µM): 86%
residual activity ([34]; compound 10.0 µM): 89%
residual activity ([23]; compound 1.0 µM): 83%
residual activity ([23]; compound 10.0 µM): 93%
residual activity ([24]; compound 1.0 µM): 104%
residual activity ([24]; compound 10.0 µM): 92%
residual activity ([25]; compound 1.0 µM): 101%
residual activity ([25]; compound 10.0 µM): 107%
residual activity ([26]; compound 1.0 µM): 90%
residual activity ([26]; compound 10.0 µM): 89%
residual activity ([27]; compound 1.0 µM): 94%
residual activity ([27]; compound 10.0 µM): 96%
residual activity ([28]; compound 10.0 µM): 91%
residual activity ([30]; compound 1.0 µM): 140%
residual activity ([30]; compound 10.0 µM): 83%
SMILES: O=C(NOC[C@H](O)CO)c1ccc(F)c(F)c1Nc1ccc(I)cc1Cl
residual activity ([29]; compound 1.0 µM): 104%
residual activity ([29]; compound 10.0 µM): 96%
